Literature values, collected in PMC5238771 (OncoTargets and therapy, 2017).

Columns and labels:
[1] = tested on: HepG2 human hepatocellular carcinoma cell line; conditions: HepG2 cells, dose-dependent and time-dependent
[2] = tested on: CYP3A4 enzyme; conditions: both in vitro and in vivo
[3] = tested on: SMMC-7721 human hepatocellular carcinoma cell line; conditions: SMMC-7721 cells, dose-dependent and time-dependent

In the case of `C[C@]12CC[C@H](O)C[C@H]1CC[C@@H]1[C@@H]2CC[C@]2(C)[C@@H](c3ccc(=O)oc3)CC[C@]12O` [bufalin], the Inhibition of proliferation [1] is listed as “inhibited the proliferation”, the “Inhibition of CYP3A4 enzyme” value [2] is listed as “modest but significant inhibition” and the Inhibition of proliferation [3] is listed as “inhibited the proliferation”.
